The source of these data is paper PMC6073568, “Efficient Lead Finding, Activity Enhancement and Preliminary Selectivity Control of Nuclear Receptor Ligands Bearing a Phenanthridinone Skeleton” (International Journal of Molecular Sciences, 2018).

One assay has as its target T1, LXRβ (Homo sapiens, UniProt P55055).
T1 construct: CMX-GAL4N-hLXRβ-LBD; expressed in transfected cells; host or cells: HEK293
T1 sequence (P55055 222-460 limits assumed): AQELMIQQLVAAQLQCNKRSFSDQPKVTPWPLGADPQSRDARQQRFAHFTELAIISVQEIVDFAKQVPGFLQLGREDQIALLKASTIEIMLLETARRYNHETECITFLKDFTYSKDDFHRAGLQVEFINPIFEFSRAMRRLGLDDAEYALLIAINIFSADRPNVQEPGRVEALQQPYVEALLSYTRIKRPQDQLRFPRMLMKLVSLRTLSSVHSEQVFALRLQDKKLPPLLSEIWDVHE
The assay can be described thus: LXRβ reporter gene assay in HEK293. It is filed as cell-based. The note with it: read-out: LXRβ antagonistic activity (IC50). For orientation: Reporter assays use an easily measured gene product as a stand-in for the process of interest.

A further assay addresses T2, LXRα (Homo sapiens, UniProt Q13133).
T2 construct: CMX-GAL4N-hLXRα-LBD; expressed in transfected cells; host or cells: HEK293
T2 sequence (Q13133 209-447 limits assumed): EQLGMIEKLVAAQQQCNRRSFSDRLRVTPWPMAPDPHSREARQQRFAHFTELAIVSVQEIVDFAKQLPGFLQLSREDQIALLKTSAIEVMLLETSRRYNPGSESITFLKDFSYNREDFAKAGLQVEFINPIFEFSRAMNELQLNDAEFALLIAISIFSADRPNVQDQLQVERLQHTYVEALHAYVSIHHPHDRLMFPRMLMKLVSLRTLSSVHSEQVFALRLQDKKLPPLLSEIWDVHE
The experiment in a line: LXRα reporter gene assay in HEK293. In kind it is cell-based. Particulars: read-out: LXRα antagonistic activity (IC50).

Another assay addresses T3, GR (Homo sapiens, UniProt P04150).
T3 construct: expressed in transfected cells; host or cells: HEK293
T3 sequence (P04150 1-777): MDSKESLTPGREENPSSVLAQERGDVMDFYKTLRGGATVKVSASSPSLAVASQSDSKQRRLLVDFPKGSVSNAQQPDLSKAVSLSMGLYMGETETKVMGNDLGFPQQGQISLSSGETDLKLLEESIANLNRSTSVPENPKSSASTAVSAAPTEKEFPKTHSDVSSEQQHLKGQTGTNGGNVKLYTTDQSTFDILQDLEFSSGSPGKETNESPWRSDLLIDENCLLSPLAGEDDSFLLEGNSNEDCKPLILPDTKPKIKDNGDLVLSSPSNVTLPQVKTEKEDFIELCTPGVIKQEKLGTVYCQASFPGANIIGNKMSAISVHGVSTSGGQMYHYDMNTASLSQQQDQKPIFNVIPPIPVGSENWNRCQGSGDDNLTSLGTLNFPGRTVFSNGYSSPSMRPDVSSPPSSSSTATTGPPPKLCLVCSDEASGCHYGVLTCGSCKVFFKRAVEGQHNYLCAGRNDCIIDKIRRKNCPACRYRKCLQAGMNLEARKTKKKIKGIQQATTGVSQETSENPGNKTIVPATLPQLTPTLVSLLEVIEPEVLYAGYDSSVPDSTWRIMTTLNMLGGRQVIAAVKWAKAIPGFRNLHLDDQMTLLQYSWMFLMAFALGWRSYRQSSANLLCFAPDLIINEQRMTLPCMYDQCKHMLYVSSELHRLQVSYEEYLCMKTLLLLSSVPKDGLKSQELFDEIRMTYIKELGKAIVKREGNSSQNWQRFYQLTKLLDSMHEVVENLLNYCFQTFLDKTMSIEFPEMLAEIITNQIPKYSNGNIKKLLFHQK
The assay can be described thus: GR reporter gene assay in HEK293. In kind it is cell-based. The note with it: reporter gene assay, HEK293; agonist dexamethasone 1 nM; read-out: GR antagonistic activity (IC50).

Another assay addresses T4, AR (Homo sapiens, UniProt P10275).
T4 sequence (P10275 1-920): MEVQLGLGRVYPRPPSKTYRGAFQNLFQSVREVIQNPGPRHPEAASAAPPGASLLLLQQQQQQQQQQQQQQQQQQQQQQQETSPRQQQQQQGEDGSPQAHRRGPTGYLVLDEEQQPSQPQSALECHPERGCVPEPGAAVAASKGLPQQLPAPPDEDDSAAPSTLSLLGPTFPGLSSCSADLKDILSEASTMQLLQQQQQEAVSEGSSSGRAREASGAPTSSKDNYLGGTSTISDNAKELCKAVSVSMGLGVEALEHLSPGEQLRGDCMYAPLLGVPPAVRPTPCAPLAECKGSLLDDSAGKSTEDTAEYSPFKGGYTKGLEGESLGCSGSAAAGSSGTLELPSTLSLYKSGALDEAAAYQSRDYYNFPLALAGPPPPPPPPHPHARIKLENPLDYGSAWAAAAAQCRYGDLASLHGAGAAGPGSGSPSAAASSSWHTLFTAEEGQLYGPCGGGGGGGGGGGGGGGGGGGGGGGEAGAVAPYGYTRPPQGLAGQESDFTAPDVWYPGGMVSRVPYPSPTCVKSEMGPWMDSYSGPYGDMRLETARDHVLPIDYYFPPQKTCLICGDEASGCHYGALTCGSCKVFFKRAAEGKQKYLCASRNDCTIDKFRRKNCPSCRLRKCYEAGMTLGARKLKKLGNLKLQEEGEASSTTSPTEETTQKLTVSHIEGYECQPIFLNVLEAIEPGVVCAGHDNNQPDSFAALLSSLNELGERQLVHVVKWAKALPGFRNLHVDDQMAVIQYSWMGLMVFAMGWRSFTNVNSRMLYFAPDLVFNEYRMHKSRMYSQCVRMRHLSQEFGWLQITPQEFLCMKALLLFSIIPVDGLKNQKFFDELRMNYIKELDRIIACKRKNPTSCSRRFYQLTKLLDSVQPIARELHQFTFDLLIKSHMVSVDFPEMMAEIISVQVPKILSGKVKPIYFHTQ
The experiment in a line: AR reporter gene assay in HEK293. In kind it is cell-based. The note with it: reporter gene assay, HEK293; agonist dihydrotestosterone 0.3 nM; read-out: AR antagonistic activity (IC50), AR reporter gene.

A further assay concerns the target T5, RORβ (Homo sapiens, UniProt Q92753).
T5 construct: expressed in transfected cells; host or cells: HEK293
T5 sequence (Q92753 1-459 isoform Q92753-1): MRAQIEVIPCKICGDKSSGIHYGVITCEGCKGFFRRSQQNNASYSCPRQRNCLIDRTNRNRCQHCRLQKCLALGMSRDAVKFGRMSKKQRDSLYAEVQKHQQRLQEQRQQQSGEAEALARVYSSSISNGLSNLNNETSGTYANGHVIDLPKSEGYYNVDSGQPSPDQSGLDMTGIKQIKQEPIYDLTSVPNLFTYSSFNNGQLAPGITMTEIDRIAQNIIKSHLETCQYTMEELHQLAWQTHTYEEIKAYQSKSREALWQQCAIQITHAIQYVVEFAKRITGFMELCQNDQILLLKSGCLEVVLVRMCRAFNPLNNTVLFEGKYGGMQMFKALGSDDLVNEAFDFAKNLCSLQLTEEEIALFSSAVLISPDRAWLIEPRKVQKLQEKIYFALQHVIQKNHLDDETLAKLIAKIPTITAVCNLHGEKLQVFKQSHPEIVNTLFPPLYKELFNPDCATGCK
Particulars: reporter gene assay, HEK293; read-out: RORβ inverse agonistic activity (IC50); cited from earlier work.

A further assay addresses T6, RORγ (Homo sapiens, UniProt P51449).
T6 construct: expressed in transfected cells; host or cells: HEK293
T6 sequence (P51449 1-518): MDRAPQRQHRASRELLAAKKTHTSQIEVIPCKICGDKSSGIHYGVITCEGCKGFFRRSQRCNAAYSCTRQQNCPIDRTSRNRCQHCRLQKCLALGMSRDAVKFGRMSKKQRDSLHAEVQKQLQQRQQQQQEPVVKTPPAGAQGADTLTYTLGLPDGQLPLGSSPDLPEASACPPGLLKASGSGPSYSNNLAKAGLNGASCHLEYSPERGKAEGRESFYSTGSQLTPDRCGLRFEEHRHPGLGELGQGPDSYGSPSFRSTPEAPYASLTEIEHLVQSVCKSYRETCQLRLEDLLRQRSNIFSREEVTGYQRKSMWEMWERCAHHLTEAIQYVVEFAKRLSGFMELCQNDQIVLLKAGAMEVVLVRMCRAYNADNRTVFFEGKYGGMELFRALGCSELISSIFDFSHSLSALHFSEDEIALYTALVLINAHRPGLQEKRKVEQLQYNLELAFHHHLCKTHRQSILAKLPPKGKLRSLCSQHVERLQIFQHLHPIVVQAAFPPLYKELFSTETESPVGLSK
The note with it: reporter gene assay, HEK293; read-out: RORγ inverse agonistic activity (IC50); cited from earlier work.

In a further assay the target is T7, RORα (Homo sapiens, UniProt P35398).
T7 construct: expressed in transfected cells; host or cells: HEK293
T7 sequence (P35398 1-523): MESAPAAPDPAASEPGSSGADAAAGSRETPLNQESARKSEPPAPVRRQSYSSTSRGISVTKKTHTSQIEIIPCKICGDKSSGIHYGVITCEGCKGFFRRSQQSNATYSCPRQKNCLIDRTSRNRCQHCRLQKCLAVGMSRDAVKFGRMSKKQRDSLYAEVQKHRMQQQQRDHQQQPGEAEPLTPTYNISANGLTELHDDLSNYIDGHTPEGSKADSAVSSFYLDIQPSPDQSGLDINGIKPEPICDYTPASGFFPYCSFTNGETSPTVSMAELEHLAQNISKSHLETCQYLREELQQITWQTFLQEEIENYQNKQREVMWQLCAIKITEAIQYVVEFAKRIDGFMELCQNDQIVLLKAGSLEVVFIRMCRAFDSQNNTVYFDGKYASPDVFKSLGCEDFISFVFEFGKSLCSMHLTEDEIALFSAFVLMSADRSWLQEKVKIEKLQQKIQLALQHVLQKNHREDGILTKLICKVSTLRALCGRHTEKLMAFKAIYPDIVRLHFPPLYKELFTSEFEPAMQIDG
The note with it: reporter gene assay, HEK293; read-out: RORα inverse agonistic activity (IC50); cited from earlier work.

For the next assay, the target named is T8, PR (Homo sapiens, UniProt P06401).
T8 sequence (P06401 1-933): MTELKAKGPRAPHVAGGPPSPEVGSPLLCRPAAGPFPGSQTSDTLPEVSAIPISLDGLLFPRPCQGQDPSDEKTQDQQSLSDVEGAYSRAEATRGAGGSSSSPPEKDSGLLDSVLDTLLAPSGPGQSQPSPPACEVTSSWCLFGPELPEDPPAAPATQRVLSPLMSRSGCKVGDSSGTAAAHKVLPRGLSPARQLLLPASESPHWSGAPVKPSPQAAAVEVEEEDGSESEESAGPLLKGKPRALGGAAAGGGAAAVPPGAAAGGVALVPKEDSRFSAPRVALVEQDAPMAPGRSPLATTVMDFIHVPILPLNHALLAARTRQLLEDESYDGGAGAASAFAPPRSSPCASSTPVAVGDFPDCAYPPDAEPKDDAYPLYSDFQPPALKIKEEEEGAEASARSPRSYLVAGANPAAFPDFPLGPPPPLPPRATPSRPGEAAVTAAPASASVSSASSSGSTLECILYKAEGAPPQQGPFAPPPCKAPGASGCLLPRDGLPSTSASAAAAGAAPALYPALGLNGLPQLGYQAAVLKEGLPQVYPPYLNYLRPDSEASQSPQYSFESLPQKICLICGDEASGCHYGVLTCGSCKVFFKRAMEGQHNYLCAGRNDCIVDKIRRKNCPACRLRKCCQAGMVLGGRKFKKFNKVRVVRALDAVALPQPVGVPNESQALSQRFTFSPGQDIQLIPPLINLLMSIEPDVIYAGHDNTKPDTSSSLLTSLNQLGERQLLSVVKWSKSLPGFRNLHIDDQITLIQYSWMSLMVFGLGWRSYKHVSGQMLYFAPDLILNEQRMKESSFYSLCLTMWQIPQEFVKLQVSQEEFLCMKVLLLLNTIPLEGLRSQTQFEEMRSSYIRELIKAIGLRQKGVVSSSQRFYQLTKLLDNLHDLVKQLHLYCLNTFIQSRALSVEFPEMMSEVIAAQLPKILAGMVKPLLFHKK
The note with it: alkaline phosphatase, T47D cells, progesterone 1 nM; read-out: PR antagonistic activity (IC50); cited from earlier work.

With `CCCCn1c(=O)c2ccccc2c2cc(CC)ccc21` [Compound 9], the IC50 (in general, the concentration needed to halve the response being measured) came to 16 µM at LXRβ, 17 µM at LXRα, 19 µM at GR and 19 µM on AR.
For `Cc1cc(C(O)(C(F)(F)F)C(F)(F)F)cc2c3ccc(F)cc3c(=O)n(C)c12` [Compound 3], the IC50 was over 20 µM on RORβ, over 20 µM on RORγ, over 20 µM at RORα and 0.3 µM at AR.
As to `CCCCCCn1c(=O)c2ccccc2c2cc(C(O)(C(F)(F)F)C(F)(F)F)ccc21` [Compound 16], the IC50 at LXRβ was 10 µM; on LXRα, 16 µM; at GR, over 20 µM; on AR it was 4 µM.
For `CCCCn1c(=O)c2ccc(O)cc2c2cc(C(O)(C(F)(F)F)C(F)(F)F)ccc21` [Compound 38], the IC50 at LXRα is 7 µM; at GR it was over 20 µM; at PR, 5.1 µM; at AR it was over 3 µM.
As to `CCCn1c(=O)c2ccccc2c2cc(C(O)(C(F)(F)F)C(F)(F)F)ccc21` [Compound 15], the IC50 was 6.9 µM at LXRβ; 12 µM at LXRα; 17 µM on GR; 11 µM at RORα; 5.6 µM at AR.
In the case of `CCCCn1c(=O)c2ccccc2c2cc(C)ccc21` [Compound 8], the IC50 on LXRβ is 16 µM; on LXRα, 17 µM; at GR, over 20 µM; on RORγ, 17 µM; at RORα it was 18 µM; at AR, 11 µM.
With `Cc1cc(C(O)(C(F)(F)F)C(F)(F)F)cc2c1[nH]c(=O)c1cc(F)ccc12` [Compound 44], the IC50 was over 20 µM at RORβ; over 20 µM on LXRβ; over 20 µM on RORγ; over 20 µM at RORα; 1.7 µM on AR.
Take `Cc1cc(C(O)(C(F)(F)F)C(F)(F)F)cc2c1[nH]c(=O)c1ccccc12` [Compound 40]: the half-maximal inhibitory concentration (IC50) at RORβ, at RORγ and on RORα was over 20 µM throughout.
